The values below come from patent US20210171912A1, “METHOD FOR SCALABLE SKELETAL MUSCLE LINEAGE SPECIFICATION AND CULTIVATION” (Memphis Meats, Inc., priority 2013, published 2021).

SMILES strings stand for the structures.

The test system of one data set is undifferentiated 02KM. The data set is described as follows: Tolerance of undifferentiated 02KM to 5AC. The class given is cell-based, porcine. The procedure:
5AC effects. 5AC exposure prior to, during, and following E2-mediated induction of ‘MyoDER’ was introduced to enable terminal-differentiation of 02KM from myocytes into refractive, filamentous myotubes. The murine C2C12 cell line was used as positive control to screen for optimal conditions for terminal differentiation by 02KM. […] 5AC, a small-molecule epigenetic modulator, was determined previously to enable skeletal muscle transcription in cell lines non-permissive to myogenesis. Moreover, 5AC exposure was further determined to enhance terminal differentiation by the C2C12 cell line.

For data set [1], the system named is 02K cell line. The data set is described as follows: Differentiation marker Western blot (PAX3, POU5F1, KLF4) in differentiating 02K. Particulars: CHIR99021 supplemented basal medium, absence of DOX. Type of data set: cell-based, porcine. The text has this: Expression levels of pluripotency markers, POU5F1 and KLF4, and the pre-myogenic paraxial mesoderm marker PAX3 in 02K cultures differentiated from the ground state in the presence of CHIR99021.
(§1) CHIR99021 inhibition 1 cell death. […] 1. As CHIR99021 repressed cell death, supported differentiation toward paraxial mesoderm by the differentiating 02K cell line and enhanced terminal differentiation by the C2C12 cell line, precedent was established to retain the compound in all culture stages.
(§2) CHIR99021 stabilizes CTNNB1 and supports differentiation from the ground state. […] TUBA detected as an internal protein loading control. FIG. 13A indicates ratios of p-CTNNB1/CTNNB1 bands. FIG. 13B indicates ratios of CTNNB1/TUBA bands. […] TUBA detection is shown as an internal protein loading control.
A general note: A western blot detects proteins with antibodies after separation by electrophoresis.

Data set [2] has as its system 02K cell line. The data set is described as follows: Cell survival of differentiating 02K (phase contrast, cell adhesion, CPP32 cleavage, Annexin V). The class given is cell-based, porcine. Particulars: SRM basal medium without hLIF, DOX, PD032591 and PD173074; N-2 and B-27. As for the experimental part: Without being bound by theory or limited by any specific representative example, it was observed that simultaneous withdrawal of both DOX and the GSK3P inhibitor CHIR99021 from the culture medium supplemented with N-2 and B-27 serum replacements precipitates massive cell death of differentiating 02K parental line within 48 h hours. Withdrawal of DOX in the presence of CHIR99021 enabled survival of the differentiating 02K. Death by differentiating 02K cells in the absence of a GSK3P inhibitor and reciprocal survival in the presence thereof was confirmed by morphology, cell adhesion assay, cleaved caspase-3 accumulation, and Annexin V labeling. […] WNT signaling plays crucial roles in both mesoderm specification from the undifferentiated ground-state pluripotency, pre-myogenic enrichment from unpatterned mesoderm and terminal differentiation of committed myocytes both in vivo and in vitro. In agreement, extended culture of the 02K line in the absence of DOX, and in the presence of a GSK3P inhibitor, supported differentiation toward the pre-myogenic paraxial mesoderm, as evidenced by the expression of PAX3 and concomitant loss of POU5F1 and KLF4 expression.
CHIR99021 inhibition 1 cell death. […] 1. […]
An axis of apoptosis and differentiation is modulated by CHIR99021. […] TUBA is detected an internal protein loading control.

The test system of a further data set is murine C2C12 myoblast. The experiment in a line: Terminal differentiation of C2C12 myoblasts scored by size and extent of myotube formation. Type of data set: cell-based. The settings on record: low-mitogen differentiation cultures (2% horse serum/DMEM).
Another data set has as its system CTNNB1. The experiment in a line: Western blot of CTNNB1 and p-CTNNB1 in differentiating 02K. The settings on record: 24 h differentiation milieu transition. Type of data set: cell-based, porcine. The procedure:
Cultures were exposed to 50 nM Calyculin A and 30 μM MG-132 for 3 hours prior to harvest to stabilize detectable levels of p-CTNNB1 for comparative analysis.
as §1, §2

For another data set, the system named is 02KM cells (MyoDER). The data set is described as follows: 02KM myogenic induction by E2 activation of MyoDER. Type of data set: cell-based, porcine. The settings on record: 10 μM E2, 2 d induction.
The test system of a further data set is piPSC-derived myotubes. The data set is described as follows: Calcium transient activity (Fluo-4 AM) in piPSC-derived myotubes. Particulars: 10 mM caffeine; d6 myotubes; field of view. The class given is cell-based, porcine. The source says: Spontaneous and Stimuli-Induced Calcium Transient Activity in piPSC-derived myotubes. To quantify contraction cycles, myotube cultures were stained with Fluo-4 AM calcium dye, washed, and image sequences were captured by confocal microscopy. Dynamic signaling events of an entire field of view (FOV) or single cells were traced and plotted over the imaging course. [s]=seconds.

Experimental for 02KM cell line: Terminal Differentiation. […] N-2 and B-27 supplements were used exclusively as serum replacements. Cultures were differentiated for up to 6 d following under 20% O2 following induction regimens (FIG. 20A).
MyoDER was detected with an antibody raised against a MyoD peptide. […] Determinants of MYF5 activation: Western blot analyses. […] MYODER-modified piPSC were cultured 3 days in self-renewal or expansion milieu. […] TUBA is detected as an internal protein loading control.
Terminal Myogenesis of Lineage-Specified piPSC. […] DO and D6 cultures were stained for myosin heavy chain (MyHC) isoforms with a pan-MyHC monoclonal antibody, clone MF20. […] Right panel: myonuclei distribution by myotube ploidy by propidium iodide labeling and flow cytometry analysis. n=3 with standard deviation shown. […] MyoD (MYOD1), myogenin (MYOG) and desmin (DES) expression, dO-d8. TUBA is detected as an internal protein loading control. […] FIG. 20G: Transmission Electron Microscopy, d6 myotubes.
Experimental for 02KM cells (MyoDER): 02KM myogenic induction. 02KM cells were seeded onto culture dishes coated with poly-D lysine, murine laminin and [sequence] at a density of 4.1×10^3 cells/cm^2 and cultured under 5% O2 in self-renewal medium for 3 d.

For the compound `Nc1ncn([C@@H]2O[C@H](CO)[C@@H](O)[C@H]2O)c(=O)n1` [5AC, 5-Aza-Cytidine], the “MYF5 expression in 02KM derived myocytes” value with 02KM cell line (5AC 72 hours preceding DOX withdrawal and 48 hours during E2 induction) is given as “MYF5 expression was enhanced”. Besides, in the data set with 02KM cell line (5AC during expansion and induction regimens), the “myotube morphology during terminal differentiation” value is given as “formed refractive, anisotropic myotubes”. The compound also yielded a highest dose tolerated in the data set with undifferentiated 02KM of 250 nM.
As to `Cc1c[nH]c(-c2cnc(NCCNc3ccc(C#N)cn3)nc2-c2ccc(Cl)cc2Cl)n1` [CHIR99021], the “pre-myogenic paraxial mesoderm lineage specification (PAX3 expression)” value in the data set on 02K cell line [1] is on record as “supported pre-myogenic paraxial mesoderm lineage specification of differentiating 02K”. Besides, the “cell survival during differentiation” value with 02K cell line [2] is “supported both cell survival during differentiation”. For the same compound, the “terminal differentiation of C2C12 into multi-nucleated myotubes” value in the data set with murine C2C12 myoblast was “enhanced the terminal differentiation of the myogenic murine C2C12 cell line into multi-nucleated myotubes”. Moreover, the “CTNNB1 stabilization and phosphorylation status” value with CTNNB1 is “stabilizes and modulates the phosphorylation status of the GSK3P substrate, CTNNB1”.
For `C[C@]12CC[C@@H]3c4ccc(O)cc4CC[C@H]3[C@@H]1CC[C@@H]2O` [E2, 17-β Estradiol], in the data set on 02KM cells (MyoDER), the “myogenic lineage specification (spindle-like morphology, MYOG, NCAM)” value was “myogenic lineage specification following 2 d induction culture was confirmed”.
`Cn1c(=O)c2c(ncn2C)n(C)c1=O` [caffeine]: the calcium transient activation result with piPSC-derived myotubes is on record as “FOV calcium transient activation of d6 myotubes”.
